In US8518931B2, “Compounds and compositions as kinase inhibitors” (IRM LLC, priority 2008, dated 2013):
pIC50: −log10 of the molar value.

Biological target: T1, NPM-ALK (Homo sapiens, UniProt Q9UM73)
T1 construct: nucleophosmin (NPM, NPM1; human P06748) fusion partner; expressed in transfected cells; host or cells: murine BaF3 cells (DSMZ), transfected with pCIneo (Promega) coding for NPM-ALK and selected with G418; the other entry of the earlier key: Npm1 (Q61937, Nucleophosmin)
Assay: NPM-ALK BaF3 assay (growth inhibition of BaF3-NPM-ALK cells)
Type: cell-based
Conditions: human NPM-ALK overexpressing murine BaF3 cells
Description: The expression of NPM-ALK may be achieved by transfecting the BaF3 cell line with an expression vector pClneo™ (Promega Corp., Madison Wis., USA) coding for NPM-ALK and subsequent selection of G418 resistant cells. Non-transfected BaF3 cells depend on IL-3 for cell survival. In contrast, NPM-ALK expressing BaF3 cells (named BaF3-NPM-ALK hereinafter) can proliferate in the absence of IL-3 because they obtain proliferative signal through NPM-ALK kinase. Putative inhibitors of the NPM-ALK kinase therefore abolish the growth signal and may result in antiproliferative activity. The antiproliferative activity of putative inhibitors of the NPM-ALK kinase can however be overcome by addition of IL-3, which provides growth signals through an NPM-ALK independent mechanism. An analogous cell system using FLT3 kinase has also been described (see, E Weisberg et al. Cancer Cell; 1, 433-443 (2002)).
The inhibitory activity of the compounds of the invention may be determined as follows. In general, BaF3-NPM-ALK cells (15,000/microtitre plate well) are transferred to 96-well microtitre plates. Test compounds dissolved in dimethyl sulfoxide (DMSO) are added in a series of concentrations (dilution series) in such a manner that the final concentration of DMSO is not greater than 1% (v/v). After the addition, the plates are incubated for two days during which the control cultures without test compound are able to undergo two cell-division cycles. The growth of the BaF3-NPM-ALK cells is measured by means of YOPRO™ staining [T Idziorek et al. J. Immunol. Methods; 185: 249-258 (1995)]: 25 μl of lysis buffer comprising 20 mM sodium citrate, pH 4.0, 26.8 mM sodium chloride, 0.4% NP40, 20 mM EDTA and […] to each well. Cell lysis is completed within 60 min at room temperature and total amount of YOPRO™ bound to DNA is determined by measurement using the Cytofluor II 96-well reader (PerSeptive Biosystems) with the following settings: Excitation (nm) 485/20 and Emission (nm) 530/25.
IC50 values may be determined by a computer-aided system using the formula: IC50=[(ABStest−ABSstart)/(ABScontrol−ABSstart)]×100·(ABS=absorption)
In general, compounds of the invention have IC50 values from 1 nM to 10 μM. In some examples, compounds of the invention have IC50 values from 0.01 μM to 5 μM. In other examples, compounds of the invention have IC50 values from 0.01 μM to 1 μM, or more particularly from 1 nM to 1 μM.
Table 1 describes representative compounds of the invention, prepared following the procedures described above. IC50 values are as measured in an NPM-ALK BaF3 assay.

T1 sequence (Q9UM73 with tags, fused parts or gaps): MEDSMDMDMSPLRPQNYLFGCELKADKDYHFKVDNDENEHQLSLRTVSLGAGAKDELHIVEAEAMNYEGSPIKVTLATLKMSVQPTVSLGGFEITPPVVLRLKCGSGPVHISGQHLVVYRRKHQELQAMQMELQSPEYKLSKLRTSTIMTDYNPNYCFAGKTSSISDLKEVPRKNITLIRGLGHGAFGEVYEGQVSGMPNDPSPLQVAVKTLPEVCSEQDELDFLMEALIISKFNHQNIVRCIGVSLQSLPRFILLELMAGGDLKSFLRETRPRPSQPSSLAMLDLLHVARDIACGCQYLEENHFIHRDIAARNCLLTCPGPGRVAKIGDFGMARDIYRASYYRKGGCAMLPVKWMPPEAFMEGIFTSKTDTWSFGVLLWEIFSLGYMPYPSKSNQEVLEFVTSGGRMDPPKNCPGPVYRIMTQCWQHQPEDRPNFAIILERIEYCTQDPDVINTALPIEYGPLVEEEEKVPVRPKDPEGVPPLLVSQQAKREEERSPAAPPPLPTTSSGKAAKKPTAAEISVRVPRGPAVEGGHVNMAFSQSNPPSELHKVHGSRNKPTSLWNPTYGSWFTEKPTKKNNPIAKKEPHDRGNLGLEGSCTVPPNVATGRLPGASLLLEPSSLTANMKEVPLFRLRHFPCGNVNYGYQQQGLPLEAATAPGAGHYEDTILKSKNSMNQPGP

SMILES	pIC50
CCN(CC)CCC(=O)N1CCC(c2cc(OC)c(Nc3nc(Nc4ccccc4S(=O)(=O)C(C)C)n4nccc4n3)cc2C)CC1 [Ex 99]	7.46
COc1cc(C2CCN(C(=O)[C@H](C)N(C)C)CC2)c(C)cc1Nc1nc(Nc2ccccc2S(=O)(=O)C(C)C)n2nccc2n1 [Ex 66]	7.49
COc1cc(C2CCN(CCC(N)=O)CC2)c(C)cc1Nc1nc(Nc2ccccc2S(=O)(=O)C(C)C)n2nccc2n1 [Ex 13]	7.82
COc1cc(C2CCNCC2)c(C)cc1Nc1nc(Nc2ccccc2S(=O)(=O)C(C)C)n2nccc2n1 [Ex 4]	7.42
Cc1cc(C2CCNCC2)c(Cl)cc1Nc1nc(Nc2ccccc2S(=O)(=O)C(C)C)n2nccc2n1 [Ex 11]	5.85
Cc1cc(C2CCN(CCS(C)(=O)=O)CC2)c(C)cc1Nc1nc(Nc2ccccc2S(=O)(=O)C(C)C)n2nccc2n1 [Ex 45]	7.21
CNC(C)(C)C(=O)N1CCC(c2cc(OC)c(Nc3nc(Nc4ccccc4S(=O)(=O)C(C)C)n4nccc4n3)cc2C)CC1 [Ex 27]	7.36
CCN(CC)CC(=O)N1CCC(c2cc(OC)c(Nc3nc(Nc4ccccc4S(=O)(=O)C(C)C)n4nccc4n3)cc2C)CC1 [Ex 110]	7.80
COc1cc(C2CCN(C(=O)[C@H](C)N(C)CCO)CC2)c(C)cc1Nc1nc(Nc2ccccc2S(=O)(=O)C(C)C)n2nccc2n1 [Ex 95]	7.66
CC(C)S(=O)(=O)c1ccccc1Nc1nc(Nc2ccc3c(c2)CN(CCS(C)(=O)=O)CC3)nc2ccnn12 [Ex 39]	6.33
CNC(=O)CCN1CCC(c2cc(OC)c(Nc3nc(Nc4ccccc4S(=O)(=O)C(C)C)n4nccc4n3)cc2C)CC1 [Ex 90]	7.89
COC[C@H](N)C(=O)N1CCC(c2cc(OC)c(Nc3nc(Nc4ccccc4S(=O)(=O)C(C)C)n4nccc4n3)cc2C)CC1 [Ex 94]	7.80
COc1cc(C2CCN(C(=O)[C@@H](C)NCCO)CC2)c(C)cc1Nc1nc(Nc2ccccc2S(=O)(=O)C(C)C)n2nccc2n1 [Ex 97]	7.49
COc1cc(C2CCN(CCS(C)(=O)=O)CC2)c(C)cc1Nc1nc(Nc2ccccc2S(=O)(=O)C(C)C)n2nccc2n1 [Ex 7]	7.30
COc1cc(C2CCN(C)CC2)c(C)cc1Nc1nc(Nc2ccccc2S(=O)(=O)C(C)C)n2nccc2n1 [Ex 3]	7.72
COc1cc(C2CCN(C(=O)[C@H]3COC(C)(C)CN3)CC2)c(C)cc1Nc1nc(Nc2ccccc2S(=O)(=O)C(C)C)n2nccc2n1 [Ex 85]	7.47
COc1cc(C2CCN(C(=O)C3COCCN3)CC2)c(C)cc1Nc1nc(Nc2ccccc2S(=O)(=O)C(C)C)n2nccc2n1 (centres unmarked) [Ex 32]	7.54
Cc1cc(Nc2nc(Nc3ccccc3S(=O)(=O)C(C)C)n3nccc3n2)c(OC(C)C)cc1C1CCN(Cc2cnn(C)c2)CC1 [Ex 6]	7.10
COCCNCC(=O)N1CCC(c2cc(OC)c(Nc3nc(Nc4ccccc4S(=O)(=O)C(C)C)n4nccc4n3)cc2C)CC1 [Ex 74]	7.55
CCCN(CCC)CC(=O)N1CCC(c2cc(OC)c(Nc3nc(Nc4ccccc4S(=O)(=O)C(C)C)n4nccc4n3)cc2C)CC1 [Ex 102]	7.31

The next lines start with the values.

pIC50	SMILES
6.89	CC(C)S(=O)(=O)c1ccccc1Nc1nc(Nc2ccc(C3CCN(CC(N)=O)CC3)cc2)nc2ccnn12 [Ex 91]
7.07	CC(C)S(=O)(=O)c1ccccc1Nc1nc(Nc2ccc3c(c2)CCNC3)nc2ccnn12 [Ex 41]
7.59	COc1cc(C2CCN(C(=O)[C@@H](C)N3CCC3)CC2)c(C)cc1Nc1nc(Nc2ccccc2S(=O)(=O)C(C)C)n2nccc2n1 [Ex 81]
7.49	COc1cc(C2CCN(C(=O)[C@@H](C)N3CCCC3)CC2)c(C)cc1Nc1nc(Nc2ccccc2S(=O)(=O)C(C)C)n2nccc2n1 [Ex 96]
7.60	CNC1(C(=O)N2CCC(c3cc(OC)c(Nc4nc(Nc5ccccc5S(=O)(=O)C(C)C)n5nccc5n4)cc3C)CC2)CC1 [Ex 26]
7.51	Cc1cc(C2CCN(CCS(C)(=O)=O)CC2)ccc1Nc1nc(Nc2ccccc2S(=O)(=O)C(C)C)n2nccc2n1 [Ex 46]
7.51	COc1cc(C2CCN(C(=O)CN3CCCC3)CC2)c(C)cc1Nc1nc(Nc2ccccc2S(=O)(=O)C(C)C)n2nccc2n1 [Ex 15]
7.28	COc1cc(C2CCN(C(=O)CNC(C)(C)C)CC2)c(C)cc1Nc1nc(Nc2ccccc2S(=O)(=O)C(C)C)n2nccc2n1 [Ex 63]
7.44	COc1cc(C2CCN(C(=O)CN3CC[C@H](O)C3)CC2)c(C)cc1Nc1nc(Nc2ccccc2S(=O)(=O)C(C)C)n2nccc2n1 [Ex 77]
7.17	CNCCC(=O)N1CCC(c2cc(OC)c(Nc3nc(Nc4ccccc4S(=O)(=O)C(C)C)n4nccc4n3)cc2C)CC1 [Ex 19]
7.59	COc1cc(C2CCN(C(=O)CN3CCC3)CC2)c(C)cc1Nc1nc(Nc2ccccc2S(=O)(=O)C(C)C)n2nccc2n1 [Ex 20]
7.82	CCNCC(=O)N1CCC(c2cc(OC)c(Nc3nc(Nc4ccccc4S(=O)(=O)C(C)C)n4nccc4n3)cc2C)CC1 [Ex 105]
7.07	COc1cc(C2CCN(C(=O)CNCCO)CC2)c(C)cc1Nc1nc(Nc2ccccc2S(=O)(=O)C(C)C)n2nccc2n1 [Ex 58]
5.99	CC(C)S(=O)(=O)c1ccccc1Nc1nc(Nc2ccc3c(c2)CNCC3)nc2ccnn12 [Ex 42]
6.88	CC(C)S(=O)(=O)c1ccccc1Nc1nc(Nc2ccc(C3CCN(C(=O)CN4CCC4)CC3)cc2)nc2ccnn12 [Ex 93]
7.64	CCNC1(C(=O)N2CCC(c3cc(OC)c(Nc4nc(Nc5ccccc5S(=O)(=O)C(C)C)n5nccc5n4)cc3C)CC2)CC1 [Ex 22]
7.44	COc1cc(C2CCN(C(=O)C3CCCN3)CC2)c(C)cc1Nc1nc(Nc2ccccc2S(=O)(=O)C(C)C)n2nccc2n1 (centres unmarked) [Ex 31]
7.59	COc1cc(C2CCN(C(=O)CN3CCCCC3)CC2)c(C)cc1Nc1nc(Nc2ccccc2S(=O)(=O)C(C)C)n2nccc2n1 [Ex 14]
7.51	COc1cc(C2CCN(C(=O)CCCN3CCOCC3)CC2)c(C)cc1Nc1nc(Nc2ccccc2S(=O)(=O)C(C)C)n2nccc2n1 [Ex 101]
7.23	Cc1cc(C2CCN(C(=O)CCN(C)C)CC2)c(C)cc1Nc1nc(Nc2ccccc2S(=O)(=O)C(C)C)n2nccc2n1 [Ex 48]
6.89	CC(C)S(=O)(=O)c1ccccc1Nc1nc(Nc2ccc(C3CCNCC3)cc2)nc2ccnn12 [Ex 37]
7.31	COc1cc(C2CCN(C(=O)CCN3CCCC3)CC2)c(C)cc1Nc1nc(Nc2ccccc2S(=O)(=O)C(C)C)n2nccc2n1 [Ex 104]
7.23	COc1cc(C2CCN(C(=O)[C@@H](N)CO)CC2)c(C)cc1Nc1nc(Nc2ccccc2S(=O)(=O)C(C)C)n2nccc2n1 [Ex 69]
7.66	COc1cc(C2CCN(C(=O)CCN(C)C)CC2)c(C)cc1Nc1nc(Nc2ccccc2S(=O)(=O)C(C)C)n2nccc2n1 [Ex 25]
